Columns and labels:
[1] = target: T1, Alpha-2C adrenergic receptor (Homo sapiens, UniProt P18825); test: DRUGMATRIX: Adrenergic Alpha-2C radioligand binding (ligand: [3H] MK-912); type: cell membranes, Sf9, Membrane; for IC50: call rule not given here
T1 sequence (P18825 whole entry): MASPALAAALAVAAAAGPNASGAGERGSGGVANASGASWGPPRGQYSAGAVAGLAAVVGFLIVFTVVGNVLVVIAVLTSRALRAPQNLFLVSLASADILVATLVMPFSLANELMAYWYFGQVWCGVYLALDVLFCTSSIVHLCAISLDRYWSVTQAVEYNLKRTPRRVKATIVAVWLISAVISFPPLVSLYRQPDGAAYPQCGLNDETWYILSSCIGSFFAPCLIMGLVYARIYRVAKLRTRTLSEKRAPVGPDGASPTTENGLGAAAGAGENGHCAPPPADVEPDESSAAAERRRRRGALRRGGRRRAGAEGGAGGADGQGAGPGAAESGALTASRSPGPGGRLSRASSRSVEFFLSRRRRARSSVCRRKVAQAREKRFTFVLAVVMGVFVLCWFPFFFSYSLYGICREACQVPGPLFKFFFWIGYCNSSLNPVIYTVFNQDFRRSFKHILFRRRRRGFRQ

B2 bradykinin receptor = target: T2, B2 bradykinin receptor (Homo sapiens, UniProt P30411); type: cell membranes, Membrane; settings: chem-1; note: in other assays of this panel Not Active means under 50% inhibition at 10 µM
T2 sequence (P30411 whole entry): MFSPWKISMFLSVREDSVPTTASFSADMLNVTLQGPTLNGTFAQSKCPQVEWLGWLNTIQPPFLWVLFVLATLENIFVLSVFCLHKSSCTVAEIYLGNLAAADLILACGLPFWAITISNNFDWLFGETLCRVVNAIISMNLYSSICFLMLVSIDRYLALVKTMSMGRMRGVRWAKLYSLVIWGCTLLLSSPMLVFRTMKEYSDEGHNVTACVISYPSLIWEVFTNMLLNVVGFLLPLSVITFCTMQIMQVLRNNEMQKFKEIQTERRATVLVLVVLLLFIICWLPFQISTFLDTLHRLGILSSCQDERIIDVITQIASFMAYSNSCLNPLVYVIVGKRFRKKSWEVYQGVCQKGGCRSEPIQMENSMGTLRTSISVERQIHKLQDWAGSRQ

[2] = target: T3, Vasoactive intestinal polypeptide receptor 1 (Homo sapiens, UniProt P32241); type: cell membranes, Membrane; settings: ht-29; note: in other assays of this panel Not Active means under 50% inhibition at 10 µM
T3 sequence (P32241 whole entry): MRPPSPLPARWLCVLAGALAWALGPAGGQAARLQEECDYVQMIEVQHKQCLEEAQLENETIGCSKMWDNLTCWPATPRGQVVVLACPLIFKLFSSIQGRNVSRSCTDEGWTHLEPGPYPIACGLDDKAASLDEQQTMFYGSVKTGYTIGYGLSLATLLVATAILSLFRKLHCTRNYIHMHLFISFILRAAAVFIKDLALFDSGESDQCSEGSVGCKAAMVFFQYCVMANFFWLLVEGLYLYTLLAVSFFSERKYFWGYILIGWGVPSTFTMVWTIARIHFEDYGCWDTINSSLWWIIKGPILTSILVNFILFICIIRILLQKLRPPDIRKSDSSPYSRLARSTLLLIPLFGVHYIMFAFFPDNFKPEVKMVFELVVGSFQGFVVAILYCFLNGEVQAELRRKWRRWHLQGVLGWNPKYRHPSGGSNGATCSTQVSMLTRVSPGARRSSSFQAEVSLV

Endothelin-1 receptor = target: T4, Endothelin-1 receptor (Homo sapiens, UniProt P25101); type: cell membranes, Membrane; settings: cho-k1; note: in other assays of this panel Not Active means under 50% inhibition at 10 µM
T4 sequence (P25101 whole entry): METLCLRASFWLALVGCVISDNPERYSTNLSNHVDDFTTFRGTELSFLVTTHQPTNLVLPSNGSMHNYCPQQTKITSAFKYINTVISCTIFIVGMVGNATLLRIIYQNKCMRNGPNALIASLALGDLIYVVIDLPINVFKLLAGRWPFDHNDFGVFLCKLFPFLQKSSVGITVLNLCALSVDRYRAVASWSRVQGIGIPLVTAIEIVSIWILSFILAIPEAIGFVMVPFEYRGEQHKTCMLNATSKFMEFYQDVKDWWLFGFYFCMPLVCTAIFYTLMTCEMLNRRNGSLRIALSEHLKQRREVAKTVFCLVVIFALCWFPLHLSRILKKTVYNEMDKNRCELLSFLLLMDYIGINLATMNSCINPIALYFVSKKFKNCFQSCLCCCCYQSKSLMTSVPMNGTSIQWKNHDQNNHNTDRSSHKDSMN

Cathepsin G = target: T5, Cathepsin G (Homo sapiens, UniProt P08311); type: tissue-based; settings: neutrophil;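 note: inhibition of Cathepsin G enzyme activity, tested on an AMC-conjugated peptide substrate; in other assays of this panel Not Active means under 50% inhibition at 10 µM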
T5 sequence (P08311 whole entry): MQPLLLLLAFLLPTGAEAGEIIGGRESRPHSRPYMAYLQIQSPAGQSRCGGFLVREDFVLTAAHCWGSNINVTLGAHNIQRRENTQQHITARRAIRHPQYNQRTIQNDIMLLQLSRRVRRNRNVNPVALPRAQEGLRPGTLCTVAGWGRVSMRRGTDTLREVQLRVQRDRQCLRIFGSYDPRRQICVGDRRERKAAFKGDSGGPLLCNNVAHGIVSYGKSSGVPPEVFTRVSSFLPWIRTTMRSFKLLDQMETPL

Adenosine receptor A1 = target: T6, Adenosine receptor A1 (Homo sapiens, UniProt P30542); type: cell membranes, Membrane; settings: cho
T6 sequence (P30542 whole entry): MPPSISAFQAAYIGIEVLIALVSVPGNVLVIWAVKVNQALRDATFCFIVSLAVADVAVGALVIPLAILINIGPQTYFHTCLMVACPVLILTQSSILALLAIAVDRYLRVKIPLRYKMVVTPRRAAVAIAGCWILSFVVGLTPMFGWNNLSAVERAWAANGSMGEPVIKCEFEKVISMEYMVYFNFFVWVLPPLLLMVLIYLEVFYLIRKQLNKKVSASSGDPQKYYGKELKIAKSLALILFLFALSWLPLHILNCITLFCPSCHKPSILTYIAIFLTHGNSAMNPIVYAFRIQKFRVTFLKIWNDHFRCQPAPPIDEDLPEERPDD

Row | SMILES | IC50 ([1]; sf9) | IC50 (B2 bradykinin receptor) | IC50 [2] | IC50 (Endothelin-1 receptor) | IC50 (Cathepsin G) | IC50 (Adenosine receptor A1) | IC50 ([1]; read-out: IC50) [µM] | Ki ([1]; read-out: Ki) [µM]
1 | NC(=O)NO [HYDROXYUREA] | Not Active | Not Active | Not Active | Not Active | Not Active | Not Active | – | –
2 | CC(C)Cc1ccc(C(C)C(=O)O)cc1 (stereo not drawn) [IBUPROFEN] | Not Active | Not Active | Not Active | Not Active | Not Active | Not Active | – | –
3 | COc1ccc2c(c1)c(CC(=O)O)c(C)n2C(=O)c1ccc(Cl)cc1 [INDOMETHACIN] | Not Active | Not Active | Not Active | Not Active | Not Active | Not Active | – | –
4 | CCc1c2c(nc3ccc(OC(=O)N4CCC(N5CCCCC5)CC4)cc13)-c1cc3c(c(=O)n1C2)COC(=O)[C@]3(O)CC [IRINOTECAN] | – | Not Active | Not Active | Not Active | Not Active | Not Active | 3.17 | 0.461
5 | CC(C(=O)O)c1cccc(C(=O)c2ccccc2)c1 (stereo not drawn) [KETOPROFEN] | Not Active | Not Active | Not Active | Not Active | Not Active | Not Active | – | –
6 | Nc1ccn([C@@H]2CS[C@H](CO)O2)c(=O)n1 [LAMIVUDINE] | Not Active | Not Active | Not Active | Not Active | Not Active | Not Active | – | –
7 | O=S(=O)([O-])CCS.[Na+] [MESNA] | Not Active | Not Active | Not Active | Not Active | Not Active | Not Active | – | –
8 | C#C[C@]1(O)CC[C@H]2[C@@H]3CCc4cc(OC)ccc4[C@H]3CC[C@@]21C [MESTRANOL] | Not Active | Not Active | Not Active | Not Active | Not Active | Not Active | – | –
9 | CC(=O)Nc1cccc(O)c1 [METACETAMOL] | Not Active | Not Active | Not Active | Not Active | Not Active | Not Active | – | –
10 | Cc1ncc([N+](=O)[O-])n1CCO [METRONIDAZOLE] | Not Active | Not Active | Not Active | Not Active | Not Active | Not Active | – | –
11 | CC(C)(C(=O)c1cccnc1)c1cccnc1 [METYRAPONE] | Not Active | Not Active | Not Active | Not Active | Not Active | Not Active | – | –
12 | Oc1ccc(OCc2ccccc2)cc1 [MONOBENZONE] | Not Active | Not Active | Not Active | Not Active | Not Active | Not Active | – | –
13 | CC(C)(Oc1ccc(C2CCCc3ccccc32)cc1)C(=O)O (stereo not drawn) [NAFENOPIN] | Not Active | Not Active | Not Active | Not Active | Not Active | Not Active | – | –
14 | COc1ccc2cc([C@H](C)C(=O)O)ccc2c1 [NAPROXEN] | Not Active | Not Active | Not Active | Not Active | Not Active | Not Active | – | –
15 | CC(C)[C@H]1CC[C@H](C(=O)N[C@H](Cc2ccccc2)C(=O)O)CC1 [NATEGLINIDE] | Not Active | Not Active | Not Active | Not Active | Not Active | Not Active | – | –
16 | CCN[C@@H]1C[C@H](N)[C@@H](O[C@H]2OC(CN)=CC[C@H]2N)[C@H](O)[C@H]1O[C@H]1OC[C@](C)(O)[C@H](NC)[C@H]1O [NETILMICIN] | Not Active | Not Active | Not Active | Not Active | Not Active | Not Active | – | –
17 | COC(=O)C1=C(C)NC(C)=C(C(=O)OCC(C)C)C1c1ccccc1[N+](=O)[O-] (stereo not drawn) [NISOLDIPINE] | Not Active | Not Active | Not Active | Not Active | Not Active | Not Active | – | –
18 | CCOC(=O)C1=C(C)NC(C)=C(C(=O)OC)C1c1cccc([N+](=O)[O-])c1 (stereo not drawn) [NITRENDIPINE] | Not Active | Not Active | Not Active | Not Active | Not Active | Not Active | – | –
19 | C#C[C@]1(OC(C)=O)CC[C@H]2[C@@H]3CCC4=CC(=O)CC[C@@H]4[C@H]3CC[C@@]21C [NORETHINDRONE ACETATE] | Not Active | Not Active | Not Active | Not Active | Not Active | Not Active | – | –
20 | COc1ccc2[nH]c([S+]([O-])Cc3ncc(C)c(OC)c3C)nc2c1 (stereo not drawn) [OMEPRAZOLE] | Not Active | Not Active | Not Active | Not Active | Not Active | Not Active | – | –
21 | Cc1nccn1CC1CCc2c(c3ccccc3n2C)C1=O (stereo not drawn) [ONDANSETRON] | Not Active | Not Active | Not Active | Not Active | Not Active | Not Active | – | –
22 | CCn1cc(C(=O)O)c(=O)c2cc(F)c(N3CCN(C)CC3)cc21 [PEFLOXACIN] | Not Active | Not Active | Not Active | Not Active | Not Active | Not Active | – | –
23 | CCCCOc1ccc(OCCCN2CCOCC2)cc1 [PRAMOXINE] | Not Active | Not Active | Not Active | Not Active | Not Active | Not Active | – | –
24 | O=C(C1CCCCC1)N1CC(=O)N2CCc3ccccc3C2C1 (stereo not drawn) [PRAZIQUANTEL] | Not Active | Not Active | Not Active | Not Active | Not Active | Not Active | – | –
25 | CCN(CC)CCOC(=O)c1ccc(N)cc1 [PROCAINE] | Not Active | Not Active | Not Active | Not Active | Not Active | Not Active | – | –
26 | CCCN(CCC)C(=O)C(CCC(=O)O)NC(=O)c1ccccc1 (stereo not drawn) [PROGLUMIDE] | Not Active | Not Active | Not Active | Not Active | Not Active | Not Active | – | –
27 | NC(=O)c1cnccn1 [PYRAZINAMIDE] | Not Active | Not Active | Not Active | Not Active | Not Active | Not Active | – | –

Source: ChEMBL document CHEMBL1909046, “DrugMatrix in vitro pharmacology data”
